Experimental data as given in patent US20250135050A1, “IODIDE NANOPARTICLES AND COMPOSITIONS OF METHODS OF USE THEREOF” (University of Georgia Research Foundation, Inc., priority 2021, published 2025).

How the values were obtained:
MCF-7 cells = assay: MTT cytotoxicity assay; format: cell-based; settings: FIG. 3A
Experimental: Cells were seeded in 96 well-plates (Corning, 3599) with 10,000 cells/well. […] The cellular media was replaced with media of the appropriate concentration of materials and incubated for a further 24 hours. MTT reagent was then added in the culture medium, followed by incubation at 37° C. for 3 h and the resulting purple crystal solubilized in DMSO. The absorbance was measured on a microplate reader (SynergyMx) at 590 nm, with the measurements performed in at least triplicate.

NIS = NIS expression by flow cytometry; format: cell-based; settings: MCF-7 cells, tRA 1 μM
Experimental: In addition to MCF-7, MDA-MB-231 cells, which have a low expression of NIS, were analyzed as a comparison.

Compound | toxicity of iodide (MCF-7 cells) | NIS expression (NIS)
I [iodide] | little toxicity | –
CC1=C(/C=C/C(C)=C/C=C/C(C)=C/C(=O)O)C(C)(C)CCC1 [tRA, Trans retinoic acid] | – | induced NIS expression
